Laboratory results from ChEMBL document CHEMBL1137612, “Furan based cyclic oligopeptides selectively target G-quadruplex” (J Med Chem, 2007).
Activity calls are given as the source filed them. No cut-off for these calls is given here.

Experiments:
[1] = species on record: Homo sapiens; assay: Stabilization effect on human telomeric DNA assessed as differential melting temperature in the presence of double strand DNA by FRET assay
[2] = Binding affinity to hairpin DNA; set-up: species or system Homo sapiens
[3] = Binding affinity to human telomeric DNA
[4] = species on record: Homo sapiens; assay: Stabilization effect on human telomeric DNA assessed as differential melting temperature by DSC assay
[5] = species on record: Homo sapiens; assay: Stabilization effect on human telomeric DNA assessed as differential melting temperature by FRET assay
[6] = Cell cycle arrest in […] cells assessed as accumulation at S phase at 75 uM; assay type: functional, cell-based; conditions: Homo sapiens
[7] = Cell cycle arrest in […] cells assessed as accumulation at Sub G1 phase at 300 uM; assay type: functional, cell-based; conditions: Homo sapiens
[8] = Cell cycle arrest in […] cells assessed as accumulation at G2/M phase at 300 uM; assay type: functional, cell-based; conditions: Homo sapiens
[9] = Cell cycle arrest in […] cells assessed as accumulation at G1 phase at 300 uM; assay type: functional, cell-based; conditions: Homo sapiens
[10] = Cell cycle arrest in […] cells assessed as accumulation at G2/M phase at 75 uM; assay type: functional, cell-based; conditions: Homo sapiens
[11] = Cytotoxicity against […] cells by MTT assay; assay type: functional, cell-based; conditions: Homo sapiens
[12] = Cell cycle arrest in […] cells assessed as accumulation at S phase at 300 uM; assay type: functional, cell-based; conditions: Homo sapiens
[13] = Cell cycle arrest in […] cells assessed as accumulation at Sub G1 phase at 75 uM; assay type: functional, cell-based; conditions: Homo sapiens
[14] = species on record: Homo sapiens; assay: Inhibition of telomerase extension activity at 50 uM by PCR based TRAP assay
[15] = Cell cycle arrest in […] cells assessed as accumulation at G1 phase at 75 uM; assay type: functional, cell-based; conditions: Homo sapiens

ΔTm [1] [°C] | Kd [2] [µM] | Kd [3] [µM] | ΔTm [4] [°C] | ΔTm [5] [°C] | Activity [14] | SMILES | Activity [6] [%] | Activity [7] [%] | Activity [8] [%] | Activity [9] [%] | Activity [10] [%] | IC50 [11] [µM] | Activity [12] [%] | Activity [13] [%] | Activity [15] [%]
7 | 700 | 21 | 3 | 10 | – | NCCC(=O)NCc1cc2oc1CNC(=O)C1=CC=C(CNC(=O)C3=CC=C(CNC2=O)O3)O1 | – | – | – | – | – | – | – | – | –
12 | – | 14.5 | 6.6 | 12 | Active | NCC1=C2CNC(=O)C3=CC=C(CNC(=O)c4cc(CN)c(o4)CNC(=O)C4=CC=C(CNC(=O)C(=C1)O2)O4)O3 | 8.8 | 49 | 5.5 | 39 | 18.8 | 500 | 4.8 | 47 | 23.5
17 | – | 3.1 | 9.2 | 17 | Active | NCCC(=O)NCC1=C2CNC(=O)C3=CC=C(CNC(=O)c4cc(CNC(=O)CCN)c(o4)CNC(=O)C4=CC=C(CNC(=O)C(=C1)O2)O4)O3 | 7 | 48.5 | 4.8 | 41.4 | 11.5 | 500 | 4.2 | 46 | 31.5
7 | 950 | 29 | 2 | 9 | – | NCc1cc2oc1CNC(=O)C1=CC=C(CNC(=O)C3=CC=C(CNC2=O)O3)O1 | – | – | – | – | – | – | – | – | –
